Reference: patent US20250120989A1, “BRIDGED TRICYCLIC CARBAMOYLPYRIDONE COMPOUNDS AND USES THEREOF” (priority 2023, published 2025)
Converted amounts (≈) assume the structure as drawn.

Key:
[1] = physchem; conditions: FaSSIF, 23 °C, thermodynamic from solid
[2] = in vitro; conditions: human, uninfected MT-4 cells
[3] = tested on: HIV-1 (IIIB); test: microbe, parasite or virus in culture; type: cell-based; conditions: Human immunodeficiency virus 1, MT4, 120 h; HIV-1 (IIIB) replication in MT-4 cells, 5 days, Cell Titer Glo; read-out: MT4 EC50

CC[C@H](COP(=O)(O)O)OC(=O)OCOc1c2n(cc(C(=O)NCc3ccc(F)cc3F)c1=O)[C@@H]1CN(C2=O)[C@@H](C)CC[C@]12CC(C)=NO2 [Compound 25, (((3′S,5S,7′R)-10′-((2,4-difluorobenzyl)carbamoyl)-3,3′-dimethyl-1′,11′-dioxo-1′,4′,5′,11′-tetrahydro-3′H,4H,7′H-spiro[isoxazole-5,6′-[2,7]methanopyrido[1,2-a][1,4]diazonin]-12′-yl)oxy)methyl ((R)-1-(phosphonooxy)butan-2-yl) carbonate]
solubility thermodynamic at 24 h [1]: 5130 µg/mL (≈ 7.2 mM) | CC50 at 5 days [2]: 13.9 µM | EC50 [3]: 2.21 nM

CC[C@@H](COP(=O)(O)O)OC(=O)OCOc1c2n(cc(C(=O)NCc3ccc(F)cc3F)c1=O)[C@@H]1CN(C2=O)[C@@H](C)CC[C@]12CC(C)=NO2 [Compound 26, (((3′S,5S,7′R)-10′-((2,4-difluorobenzyl)carbamoyl)-3,3′-dimethyl-1′,11′-dioxo-1′,4′,5′,11′-tetrahydro-3′H,4H,7′H-spiro[isoxazole-5,6′-[2,7]methanopyrido[1,2-a][1,4]diazonin]-12′-yl)oxy)methyl ((S)-1-(phosphonooxy)butan-2-yl) carbonate]
solubility thermodynamic at 24 h [1]: 4760 µg/mL (≈ 6.69 mM) | CC50 at 5 days [2]: 13.5 µM | EC50 [3]: 2.71 nM

CC1=NO[C@@]2(CC[C@H](C)N3C[C@H]2n2cc(C(=O)NCc4ccc(F)cc4F)c(=O)c(OCOC(=O)O[C@H](C)[C@@H](C)OP(=O)(O)O)c2C3=O)C1 [Compound 27, (((3′S,5S,7′R)-10′-((2,4-difluorobenzyl)carbamoyl)-3,3′-dimethyl-1′,11′-dioxo-1′,4′,5′,11′-tetrahydro-3′H,4H,7′H-spiro[isoxazole-5,6′-[2,7]methanopyrido[1,2-a][1,4]diazonin]-12′-yl)oxy)methyl ((2R,3R)-3-(phosphonooxy)butan-2-yl) carbonate]
solubility thermodynamic at 24 h [1]: 4660 µg/mL (≈ 6.55 mM) | CC50 at 5 days [2]: 18.7 µM | EC50 [3]: 2.47 nM

CC1=NO[C@@]2(CC[C@H](C)N3C[C@H]2n2cc(C(=O)NCc4ccc(F)cc4F)c(=O)c(OCOC(=O)O[C@@H](C)[C@H](C)OP(=O)(O)O)c2C3=O)C1 [Compound 28, (((3′S,5S,7′R)-10′-((2,4-difluorobenzyl)carbamoyl)-3,3′-dimethyl-1′,11′-dioxo-1′,4′,5′,11′-tetrahydro-3′H,4H,7′H-spiro[isoxazole-5,6′-[2,7]methanopyrido[1,2-a][1,4]diazonin]-12′-yl)oxy)methyl ((2S,3S)-3-(phosphonooxy)butan-2-yl) carbonate]
solubility thermodynamic at 24 h [1]: 4400 µg/mL (≈ 6.18 mM) | CC50 at 5 days [2]: 28.9 µM | EC50 [3]: 4.85 nM

COC1=NO[C@@]2(CC[C@H](C)N3C[C@H]2n2cc(C(=O)NCc4ccc(F)cc4F)c(=O)c(OCOC(=O)O[C@@H](C)[C@H](C)OP(=O)(O)O)c2C3=O)C1 [Compound 29, (((3′S,5S,7′R)-10′-((2,4-difluorobenzyl)carbamoyl)-3-methoxy-3′-methyl-1′,11′-dioxo-1′,4′,5′,11′-tetrahydro-3′H,4H,7′H-spiro[isoxazole-5,6′-[2,7]methanopyrido[1,2-a][1,4]diazonin]-12′-yl)oxy)methyl ((2S,3S)-3-(phosphonooxy)butan-2-yl) carbonate]
solubility thermodynamic at 24 h [1]: 4880 µg/mL (≈ 6.7 mM) | CC50 at 5 days [2]: 29 µM | EC50 [3]: 4.87 nM

CC1=NO[C@@]2(CC[C@H](C)N3C[C@H]2n2cc(C(=O)NCc4ccc(F)cc4F)c(=O)c(OCOC(=O)O[C@H](C)C[C@@H](C)OP(=O)(O)O)c2C3=O)C1 [Compound 31, (((3′S,5S,7′R)-10′-((2,4-difluorobenzyl)carbamoyl)-3,3′-dimethyl-1′,11′-dioxo-1′,4′,5′,11′-tetrahydro-3′H,4H,7′H-spiro[isoxazole-5,6′-[2,7]methanopyrido[1,2-a][1,4]diazonin]-12′-yl)oxy)methyl ((2R,4R)-4-(phosphonooxy)pentan-2-yl) carbonate]
solubility thermodynamic at 24 h [1]: 4620 µg/mL (≈ 6.37 mM) | CC50 at 5 days [2]: 12.9 µM | EC50 [3]: 3.5 nM

COC1=NO[C@@]2(CC[C@H](C)N3C[C@H]2n2cc(C(=O)NCc4ccc(F)cc4F)c(=O)c(OCOC(=O)OCC(C)(C)COP(=O)(O)O)c2C3=O)C1 [Compound 32, (((3′S,5S,7′R)-10′-((2,4-difluorobenzyl)carbamoyl)-3-methoxy-3′-methyl-1′,11′-dioxo-1′,4′,5′,11′-tetrahydro-3′H,4H,7′H-spiro[isoxazole-5,6′-[2,7]methanopyrido[1,2-a][1,4]diazonin]-12′-yl)oxy)methyl (2,2-dimethyl-3-(phosphonooxy)propyl) carbonate]
solubility thermodynamic at 24 h [1]: 4800 µg/mL (≈ 6.47 mM) | CC50 at 5 days [2]: 17.7 µM | EC50 [3]: 2.92 nM

CC1=NO[C@@]2(CC[C@H](C)N3C[C@H]2n2cc(C(=O)NCc4ccc(F)cc4F)c(=O)c(OCOC(=O)OCC4(COP(=O)(O)O)CC4)c2C3=O)C1 [Compound 33, (((3′S,5S,7′R)-10′-((2,4-difluorobenzyl)carbamoyl)-3,3′-dimethyl-1′,11′-dioxo-1′,4′,5′,11′-tetrahydro-3′H,4H,7′H-spiro[isoxazole-5,6′-[2,7]methanopyrido[1,2-a][1,4]diazonin]-12′-yl)oxy)methyl ((1-((phosphonooxy)methyl)cyclopropyl)methyl) carbonate]
solubility thermodynamic at 24 h [1]: 5680 µg/mL (≈ 7.84 mM) | CC50 at 5 days [2]: 12.3 µM | EC50 [3]: 2.17 nM

CC1=NO[C@@]2(CC[C@H](C)N3C[C@H]2n2cc(C(=O)NCc4ccc(F)cc4F)c(=O)c(OCOC(=O)OCC(C)(C)N(C)C(=O)OCOP(=O)(O)O)c2C3=O)C1 [Compound 36, (phosphonooxy)methyl (1-((((((3′S,5S,7′R)-10′-((2,4-difluorobenzyl)carbamoyl)-3,3′-dimethyl-1′,11′-dioxo-1′,4′,5′,11′-tetrahydro-3′H,4H,7′H-spiro[isoxazole-5,6′-[2,7]methanopyrido[1,2-a][1,4]diazonin]-12′-yl)oxy)methoxy)carbonyl)oxy)-2-methylpropan-2-yl)(methyl)carbamate]
solubility thermodynamic at 24 h [1]: 5060 µg/mL (≈ 6.32 mM) | CC50 at 5 days [2]: 9.33 µM | EC50 [3]: 1.22 nM

CC1=NO[C@@]2(CC[C@H](C)N3C[C@H]2n2cc(C(=O)NCc4ccc(F)cc4F)c(=O)c(OCOC(=O)OCC(C)(C)CN(CC(=O)O)C(=O)OCOP(=O)(O)O)c2C3=O)C1 [Compound 37, N-(3-((((((3′S,5S,7′R)-10′-((2,4-difluorobenzyl)carbamoyl)-3,3′-dimethyl-1′,11′-dioxo-1′,4′,5′,11′-tetrahydro-3′H,4H,7′H-spiro[isoxazole-5,6′-[2,7]methanopyrido[1,2-a][1,4]diazonin]-12′-yl)oxy)methoxy)carbonyl)oxy)-2,2-dimethylpropyl)-N-(((phosphonooxy)methoxy)carbonyl)glycine]
solubility thermodynamic at 24 h [1]: 4980 µg/mL (≈ 5.81 mM) | CC50 at 5 days [2]: 11.1 µM | EC50 [3]: 1.49 nM

COC1=NO[C@@]2(CC[C@H](C)N3C[C@H]2n2cc(C(=O)NCc4ccc(F)cc4F)c(=O)c(OC(=O)OC[C@H](C)OP(=O)(O)O)c2C3=O)C1 [Compound 38, (3′S,5S,7′R)-10′-((2,4-difluorobenzyl)carbamoyl)-3-methoxy-3′-methyl-1′,11′-dioxo-1′,4′,5′,11′-tetrahydro-3′H,4H,7′H-spiro[isoxazole-5,6′-[2,7]methanopyrido[1,2-a][1,4]diazonin]-12′-yl ((S)-2-(phosphonooxy)propyl) carbonate]
solubility thermodynamic at 24 h [1]: 2460 µg/mL (≈ 3.59 mM) | CC50 at 5 days [2]: 17.6 µM | EC50 [3]: 1.45 nM

CC1=NO[C@@]2(CC[C@H](C)N3C[C@H]2n2cc(C(=O)NCc4ccc(F)cc4F)c(=O)c(OC(=O)OC[C@H](C)OP(=O)(O)O)c2C3=O)C1 [Compound 39, (3′S,5S,7′R)-10′-((2,4-difluorobenzyl)carbamoyl)-3,3′-dimethyl-1′,11′-dioxo-1′,4′,5′,11′-tetrahydro-3′H,4H,7′H-spiro[isoxazole-5,6′-[2,7]methanopyrido[1,2-a][1,4]diazonin]-12′-yl ((S)-2-(phosphonooxy)propyl) carbonate]
solubility thermodynamic at 24 h [1]: 2660 µg/mL (≈ 3.97 mM) | CC50 at 5 days [2]: 16.1 µM | EC50 [3]: 1.6 nM

CC1=NO[C@@]2(CC[C@H](C)N3C[C@H]2n2cc(C(=O)NCc4ccc(F)cc4F)c(=O)c(OCOC(=O)CCCOP(=O)(O)O)c2C3=O)C1 [Compound 40, (((3′S,5S,7′R)-10′-((2,4-difluorobenzyl)carbamoyl)-3,3′-dimethyl-1′,11′-dioxo-1′,4′,5′,11′-tetrahydro-3′H,4H,7′H-spiro[isoxazole-5,6′-[2,7]methanopyrido[1,2-a][1,4]diazonin]-12′-yl)oxy)methyl 4-(phosphonooxy)butanoate]
solubility thermodynamic at 24 h [1]: 5340 µg/mL (≈ 7.83 mM) | CC50 at 5 days [2]: 12.6 µM | EC50 [3]: 1.26 nM

CC1=NO[C@@]2(CC[C@H](C)N3C[C@H]2n2cc(C(=O)NCc4ccc(F)cc4F)c(=O)c(OCOC(=O)CC(C)(C)COP(=O)(O)O)c2C3=O)C1 [Compound 41, (((3′S,5S,7′R)-10′-((2,4-difluorobenzyl)carbamoyl)-3,3′-dimethyl-1′,11′-dioxo-1′,4′,5′,11′-tetrahydro-3′H,4H,7′H-spiro[isoxazole-5,6′-[2,7]methanopyrido[1,2-a][1,4]diazonin]-12′-yl)oxy)methyl 3,3-dimethyl-4-(phosphonooxy)butanoate]
solubility thermodynamic at 24 h [1]: 5600 µg/mL (≈ 7.87 mM) | CC50 at 5 days [2]: 44.3 µM | EC50 [3]: 3.09 nM

CC1=NO[C@@]2(CC[C@H](C)N3C[C@H]2n2cc(C(=O)NCc4ccc(F)cc4F)c(=O)c(OCOC(=O)CC(C)(C)CN(CC(=O)O)C(=O)OCOP(=O)(O)O)c2C3=O)C1 [Compound 42, N-(4-((((3′S,5S,7′R)-10′-((2,4-difluorobenzyl)carbamoyl)-3,3′-dimethyl-1′,11′-dioxo-1′,4′,5′,11′-tetrahydro-3′H,4H,7′H-spiro[isoxazole-5,6′-[2,7]methanopyrido[1,2-a][1,4]diazonin]-12′-yl)oxy)methoxy)-2,2-dimethyl-4-oxobutyl)-N-(((phosphonooxy)methoxy)carbonyl)glycine]
solubility thermodynamic at 24 h [1]: 5080 µg/mL (≈ 6.04 mM) | CC50 at 5 days [2]: 10.3 µM | EC50 [3]: 1.06 nM
